The record followed here is ChEMBL document CHEMBL1201862, “PubChem BioAssay data set” (2004).

What all share (experiment): growth of human tumour cells (NCI), 48 h
Experiment [1] concerns 786-0.
In experiment [2] the test system is CAKI-1.
Experiment [3] relates to HCC 2998.
Experiment [4] relates to HT-29.
Experiment [5] relates to IGROV-1.
For experiment [6], the system named is K562.
Experiment [7] concerns M14.
Experiment [8] deals with MOLT-4.
For experiment [9], the system named is NCI-H460.
Experiment [10] relates to OVCAR-3.
Experiment [11] relates to OVCAR-5.
Experiment [12] relates to SF-268.
Experiment [13] has as its system SF-539.
Experiment [14] relates to SNB-19.
The subject of experiment [15] is SNB-75.
Experiment [16] concerns UACC-62.
Experiment [17] has as its system UO-31.
Experiment [18] deals with HOP-92.

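Cells were grown in 96-well plates and exposed to each compound for 48 hours at five concentrations; endpoints were interpolated linearly between bracketing concentrations, or set to the highest concentration if not reached. GI50 is the concentration that inhibits growth by half.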 Activity calls are given as the source filed them. Rule as the data show it: active = GI50 up to about 1.1 µM and inactive = higher.

Consider `COc1cc(OC)c2ssc3c(OC)cc(OC)c4ssc1c2-c43`, for which the GI50 in [1], in experiment [2], in experiment [3], in [4], in [5] and in experiment [6] was > 100 µM (inactive) throughout. In addition, the GI50 in experiment [7], in experiment [8], in experiment [9], in [10], in experiment [11] and in [12] was > 100 µM (inactive) in each case. In addition, the GI50 in experiment [13] is > 100 µM (inactive); in experiment [14], > 100 µM (inactive); in [15], 31.3 µM (inactive); in [16], > 100 µM (inactive).

For `CCCCCCCCCCCCCCCCNc1cccc2ccccc12`, the GI50 in experiment [1], in experiment [3], in [5], in experiment [6], in [7] and in [8] was > 100 µM (inactive) throughout. For the same molecule, the GI50 in [9], in experiment [10], in experiment [12], in [13], in experiment [14] and in experiment [15] was > 100 µM (inactive) in each case. Also, the GI50 in experiment [16] and in experiment [17] was > 100 µM (inactive) throughout.

Consider `NNc1cnn(-c2ccccc2)c(=O)c1Cl`, for which the GI50 in experiment [1], in experiment [2], in experiment [18], in experiment [4], in [5] and in experiment [6] was > 100 µM (inactive) each time. Further, the GI50 in experiment [7], in experiment [8], in experiment [9], in experiment [10], in [11] and in experiment [12] was > 100 µM (inactive) throughout. Moreover, the GI50 in [13], in experiment [15], in experiment [16] and in experiment [17] was > 100 µM (inactive) throughout.

As for `O=C(Nc1ccc(Cl)cc1Cl)C1C(=O)C(=O)N(c2ccc(Cl)cc2Cl)C1=O` (centres undefined), the GI50 in [1], in experiment [2], in experiment [3], in [4], in [5] and in experiment [7] was > 100 µM (inactive) each time. The GI50 in experiment [9] was > 100 µM (inactive); in [10] it was 38.5 µM (inactive); in [11] it was > 100 µM (inactive); in [12], > 100 µM (inactive); in experiment [13] it was > 100 µM (inactive); in experiment [14], > 100 µM (inactive). Further, the GI50 in [15], in experiment [16] and in [17] was > 100 µM (inactive) each time.

Turning to `CC(=O)N/C(=C\c1ccc(/C=C(\NC(C)=O)c2nc3cc(Cl)ccc3[nH]2)cc1)c1nc2ccccc2[nH]1`, the GI50 in experiment [1], in experiment [2], in experiment [18], in [4], in [5] and in [6] was > 100 µM (inactive) each time. Also, the GI50 in experiment [7], in experiment [8], in experiment [9], in experiment [10], in experiment [11] and in experiment [12] was > 100 µM (inactive) throughout. In addition, the GI50 in [13], in experiment [14], in [15] and in experiment [16] was > 100 µM (inactive) each time.

As to `O=C(/C=N/O)Nc1ccc(Cl)c(I)c1`, the GI50 is 29.3 µM (inactive) in experiment [1]; 14.3 µM (inactive) in experiment [2]; 14.1 µM (inactive) in [3]; 33.3 µM (inactive) in experiment [4]; 8.61 µM (inactive) in experiment [5]; 24 µM (inactive) in [6]. In addition, the GI50 is 18.6 µM (inactive) in [7]; 19.6 µM (inactive) in [8]; 21.6 µM (inactive) in [9]; 13.6 µM (inactive) in experiment [10]; 21.6 µM (inactive) in experiment [11]; 19.2 µM (inactive) in experiment [12]. The GI50 in [14] was 23.9 µM (inactive); in [16] it was 10.2 µM (inactive); in experiment [17], 12.1 µM (inactive).

`CN(C)CC(C)(C)C(/C=C/c1ccccc1)=N\Nc1ccccc1`: the GI50 in experiment [1] is 0.457 µM (active); in experiment [4], 11 µM (inactive); in [5], 0.723 µM (active); in experiment [6], 0.238 µM (active); in experiment [7], 5.01 µM (inactive); in experiment [8] it was 0.451 µM (active). Moreover, the GI50 in experiment [9] is 0.659 µM (active); in [10], 1.44 µM (inactive); in experiment [11], 0.31 µM (active); in experiment [12], 0.172 µM (active); in experiment [13], 0.28 µM (active); in [14], 3.23 µM (inactive). Moreover, the GI50 in [15] is 14.6 µM (inactive); in experiment [16] it was 0.0527 µM (active); in experiment [17] it was 0.0836 µM (active).

Turning to `O=C(CC1(O)C(=O)Nc2ccc([N+](=O)[O-])cc21)c1ccc2ccccc2c1` (centres undefined), the GI50 in experiment [1], in experiment [3], in experiment [4], in experiment [5], in [6] and in [7] was > 100 µM (inactive) each time. Also, the GI50 in [8], in [9], in experiment [10], in experiment [11], in [12] and in [13] was > 100 µM (inactive) in each case. Besides, the GI50 in experiment [14], in experiment [15], in experiment [16] and in experiment [17] was > 100 µM (inactive) each time.

`O=[N+]([O-])c1nccn1CC(O)CN1CC1` (centres undefined): the GI50 in experiment [1] is 65.6 µM (inactive); in experiment [2] it was 39 µM (inactive); in [4], 56.6 µM (inactive); in experiment [5], 71.3 µM (inactive); in [6], 46 µM (inactive); in experiment [7], > 100 µM (inactive). Further, the GI50 in experiment [8] is 32 µM (inactive); in experiment [9], 27.6 µM (inactive); in experiment [10] it was 25.5 µM (inactive); in [11], > 100 µM (inactive); in [12], 91.6 µM (inactive); in experiment [13] it was 55.6 µM (inactive). Besides, the GI50 is > 100 µM (inactive) in [14], 42.8 µM (inactive) in experiment [15], 44.8 µM (inactive) in [16] and 37.8 µM (inactive) in [17].
